# Experimental data: patent US8927547B2, “Pyrimidine derivatives” (Noviga Research AB, priority 2010, dated 2015)
# What was measured:
# Format in all cases: cell-based
# [1] = test system: CCRF-CEM cancer cells - leukaemia; assay: Fluorometric Microculture Cytotoxicity Assay (FMCA), CCRF-CEM; details: Homo sapiens, 72 h incubation
# Procedure, shortened: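 CCRF-CEM cells were seeded onto compound-prepared plates and incubated 72 h, then viability was read by fluorescein diacetate conversion (45 min) on a fluorometer. Survival index was calculated against control and blank wells. EC50 came from five-concentration, five-fold dilution curves from replicate experiments.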
# HCT116 = assay: FMCA, HCT116 colon cancer; details: Homo sapiens, HCT-116, read-out: EC50 (μM) in various cancer cell lines: HCT116
# Excerpt: (§1) The Fluorometric Microculture Cytotoxicity Assay, FMCA, is a three day non-clonogenic microplate-based cell viability assay used for measurement of the cytotoxic and/or cytostatic effect of compounds in vitro (Lindhagen, E., et al. Nat Protoc, 2008. 3(8): p. 1364-9). FMCA (Larsson, R. and P. Nygren, Anticancer Res, 1989. 9(4): p. 1111-9) represents a valuable method to measure cytotoxicity in a number of cell types, both cell lines and primary cells from patients (Larsson, R., et al., Int J Cancer, 1992. 50(2): p. 177-85; Fridborg, H., et al., Eur J Cancer, 1999. 35(3): p. 424-32; Dhar, S., et al., Br J Cancer, 1996. 74(6): p. 888-96).
# (§2) FMCA is based on the principle that fluorescein diacetate (FDA) is converted to the fluorescent probe fluorescein by esterases in the plasma membranes of living cells. For experiments, 96 or 384-well microplates are prepared with compounds and stored at −70° C. until use. Cells are then seeded into the drug-prepared plates and placed in an incubator for 72 h. On the last day of incubation, the plates are washed and a buffer containing FDA is added and incubated with the cells for 45 minutes. Finally the fluorescence per well is measured in a fluorometer and a Survival Index % (SI) for each compound-treated well is calculated with the equation: Compound-treated cells minus blank divided by control cells minus blank. A high SI-value indicates a large percentage of living cells and vice versa.
# (§3) Compounds of the invention as well as kinase inhibitors sorafenib, sunitinib, dasatinib, and pazopanib (reference compounds) were diluted with PBS to a concentration which was ten-times higher than the desired starting concentration. Then, a Biomek 2000 liquid handling system was employed to serially dilute the compounds in a deep-well 384-well plate. From this plate, assay plates containing 5 μl compound per well were prepared with the Biomek 2000. Certain compounds precipitated when diluted with PBS, and these compounds were therefore prepared in a 96-well plate manually as described above using culture medium RPMI 1640 instead of PBS.
# (§4) The compounds were also tested at five concentrations, with five times serial dilution on the following cell types: CCRF-CEM, hTERT-RPE1 (normal retinal epithelial cells), hRPTEpiC (normal renal cells) and PBMC (peripheral blood mononuclear cells). Each experiment was performed three times, except for PBMC and hRPTEpiC, which were performed twice. SI-values were calculated, graphs were plotted using GraphPadPrism 5.0 (GraphPad Software Inc. La Jolla, Calif.) and EC50-values for each cell type and compound were determined from the curves.
# (§5) The compounds of the invention were also tested on further cancer cell lines related to colon cancer (HCT116; see e.g Brattain M G, et al. Cancer Res. 1981, 41, 1751-1756), breast cancer (MCF7; see e.g. Soule H D, et al. J. Natl. Cancer Inst. 1973, 51, 1409-1416), teniposide-resistant leukaemia (CEM/VM1; see e.g. Danks M K et al. Cancer Res. 1987, 47, 1297-1301), lung cancer (H69; see e.g. Gazdar A F, et al. Cancer Res. 1980, 40, 3502-3507), doxorubicin-resistant lung cancer (H69AR; see e.g. Mirski S E, et al. Cancer Res. 1987, 47, 2594-2598), myeloma (RPMI 8226; see e.g. Matsuoka Y, et al. Proc. Soc. Exp. Biol. Med. 1967, 125, 1246-1250), doxorubicin-resistant myeloma (8226/Dox40; see e.g. Dalton W S et al. Blood 1989, 15,747-752), lymphoma (U-937, see e.g. Sundstrom C, et al. Int. J. Cancer 1976, 17, 565-577), vincristin-resistant lymphoma (U-937-vcr; see e.g. Botling J, et al. Int J Cancer 1994, 15; 58 (2), 269-274), ovarian cancer (A2780; see e.g. Hamilton T C, et al. Semin Oncol. 1984, 11, 285-298), doxorubicin-resistant ovarian cancer (A2780/Adr), cisplatin-resistant ovarian cancer (A2780/Cis; see e.g. Behrens B C, et al. Cancer Res. 1987, 47, 414-418), renal cancer (ACHN; see e.g. Borden E C, et al. Cancer Res. 1982, 42(12), 4948-4953), pancreatic cancer (PANC-1, BxPC-3, and MIA PaCa-2; see e.g. Lieber M, et al. Int. […]
# MCF7 = assay: FMCA, MCF7 breast cancer; details: Homo sapiens, read-out: EC50 (μM) in various cancer cell lines: MCF7
# Excerpt: as §1, §2, §3, §4, §5
# CEM/VM1 = assay: FMCA, CEM/VM1 teniposide-resistant leukaemia; details: Homo sapiens, read-out: EC50 (μM) in various cancer cell lines: CEM/VM1
# Excerpt: as §1, §2, §3, §4, §5
# H69 = assay: FMCA, H69 lung cancer; details: Homo sapiens, NCI-H69, read-out: EC50 (μM) in various cancer cell lines: H69
# Excerpt: as §1, §2, §3, §4, §5
# H69AR = assay: FMCA, H69AR doxorubicin-resistant lung cancer; details: Homo sapiens, read-out: EC50 (μM) in various cancer cell lines: H69 AR
# Excerpt: as §1, §2, §3, §4, §5
# RPMI 8226 = assay: FMCA, RPMI 8226 myeloma; details: Homo sapiens, read-out: EC50 (μM) in various cancer cell lines: RPMI 8226
# Excerpt: as §1, §2, §3, §4, §5
# 8226/Dox40 = assay: FMCA, 8226/Dox40 doxorubicin-resistant myeloma; details: read-out: EC50 (μM) in various cancer cell lines: 8226/Dox40
# Excerpt: as §1, §2, §3, §4, §5
# ACHN = assay: FMCA, ACHN renal cancer; details: Homo sapiens, read-out: EC50 (μM) in various cancer cell lines: ACHN
# Excerpt: as §1, §2, §3, §4, §5
# U-937 = assay: FMCA, U-937 lymphoma; details: Homo sapiens, read-out: EC50 (μM) in various cancer cell lines: U-937
# Excerpt: as §1, §2, §3, §4, §5
# U-937-vcr = assay: FMCA, U-937-vcr vincristin-resistant lymphoma; details: read-out: EC50 (μM) in various cancer cell lines: U-937-ver
# Excerpt: as §1, §2, §3, §4, §5
# A2780 = assay: FMCA, A2780 ovarian cancer; details: Homo sapiens, read-out: EC50 (μM) in various cancer cell lines: A2780
# Excerpt: as §1, §2, §3, §4, §5
# A2780/Adr = assay: FMCA, A2780/Adr doxorubicin-resistant ovarian cancer; details: read-out: EC50 (μM) in various cancer cell lines: A2780/Adr
# Excerpt: as §1, §2, §3, §4
# (§6) The compounds of the invention were also tested on further cancer cell lines related to colon cancer (HCT116; see e.g Brattain M G, et al. Cancer Res. 1981, 41, 1751-1756), breast cancer (MCF7; see e.g. Soule H D, et al. J. Natl. Cancer Inst. 1973, 51, 1409-1416), teniposide-resistant leukaemia (CEM/VM1; see e.g. Danks M K et al. Cancer Res. 1987, 47, 1297-1301), lung cancer (H69; see e.g. Gazdar A F, et al. Cancer Res. 1980, 40, 3502-3507), doxorubicin-resistant lung cancer (H69AR; see e.g. Mirski S E, et al. Cancer Res. 1987, 47, 2594-2598), myeloma (RPMI 8226; see e.g. Matsuoka Y, et al. Proc. Soc. Exp. Biol. Med. 1967, 125, 1246-1250), doxorubicin-resistant myeloma (8226/Dox40; see e.g. Dalton W S et al. Blood 1989, 15,747-752), lymphoma (U-937, see e.g. Sundstrom C, et al. Int. […]
# A2780/Cis = assay: FMCA, A2780/Cis cisplatin-resistant ovarian cancer; details: A2780cis, read-out: EC50 (μM) in various cancer cell lines: A2780/Cis
# Excerpt: as §1, §2, §3, §4, §6
# BxPC-3 = assay: FMCA, BxPC-3 pancreatic cancer; details: Homo sapiens, read-out: EC50 (μM) in various cancer cell lines: BxPC-3
# Excerpt: as §1
# as §2, with “versa. […]” for “versa.”
# as §4, with “Each experiment was performed three times, except for PBMC and hRPTEpiC, which were performed twice.” left out, “curves. […]” for “curves.”
# PANC-1 = assay: FMCA, PANC-1 pancreatic cancer; details: Homo sapiens, read-out: EC50 (μM) in various cancer cell lines: PANC-1
# Excerpt: as §1
# as §2, with “versa. […]” for “versa.”
# as §4, with “Each experiment was performed three times, except for PBMC and hRPTEpiC, which were performed twice.” left out, “curves. […]” for “curves.”
# MIA PaCa-2 = assay: FMCA, MIA PaCa-2 pancreatic cancer; details: Homo sapiens, read-out: EC50 (μM) in various cancer cell lines: MIA PaCa-2
# Excerpt: as §1
# as §2, with “versa. […]” for “versa.”
# as §4, with “Each experiment was performed three times, except for PBMC and hRPTEpiC, which were performed twice.” left out, “curves. […]” for “curves.”
smiles,measurement,setting,value
"COc1ccc2[nH]cc(CCNc3nccc(NCc4ccc5[nH]ccc5c4)n3)c2c1 [Example 12, N^4-(1H-indol-5-ylmethyl)-N^2-[2-(5-methoxy-1H-indol-3-yl)ethyl]pyrimidine-2,4-diamine]",EC50,[1],760 nM
same,EC50,HCT116,0.63 µM
same,EC50,MCF7,3.88 µM
same,EC50,CEM/VM1,0.17 µM
same,EC50,H69,7.84 µM
same,EC50,H69AR,0.27 µM
same,EC50,RPMI 8226,0.53 µM
same,EC50,8226/Dox40,1.81 µM
same,EC50,ACHN,1.9 µM
same,EC50,U-937,0.27 µM
same,EC50,U-937-vcr,0.3 µM
same,EC50,A2780,0.47 µM
same,EC50,A2780/Adr,1.9 µM
same,EC50,A2780/Cis,0.61 µM
same,EC50,BxPC-3,< 0.1 µM
same,EC50,PANC-1,< 0.1 µM
same,EC50,MIA PaCa-2,< 0.1 µM
